Data taken from patent publication US5840684A, “Glycopeptide antibiotic derivatives” (Eli Lilly and Company, priority 1995, dated 1998).
Converted amounts (≈) assume the structure as drawn.

Assays:
[1] = system: vancomycin-resistant enterococci; assay: broth micro-dilution, mean geometric MIC; format: cell-based, Enterococcus faecium and Enterococcus faecalis; conditions: enterococci, 24-hour incubation
[2] = system: vancomycin-susceptible enterococci; assay: broth micro-dilution, mean geometric MIC; format: cell-based, Enterococcus faecium and Enterococcus faecalis; conditions: enterococci, 24-hour incubation
[3] = system: Staphylococcus aureus 446; assay: broth micro-dilution MIC; format: cell-based
Method: (§1) The MIC's were determined using a standard broth micro-dilution assay.

Entercoccus faecium 276 = assay: broth micro-dilution MIC; format: cell-based
Method: as §1

[4] = system: Staphylococcus aureus 447; assay: broth micro-dilution MIC; format: cell-based
Method: as §1

[5] = system: Streptococcus pyogenes C203; assay: broth micro-dilution MIC; format: cell-based
Method: as §1

[6] = system: Staphylococcus aureus X778; assay: broth micro-dilution MIC; format: cell-based
Method: as §1

[7] = system: Staphylococcus aureus 491; assay: broth micro-dilution MIC; format: cell-based
Method: as §1

[8] = system: Entercoccus faecium 180-1; assay: broth micro-dilution MIC; format: cell-based
Method: as §1

[9] = system: Staphylococcus aureus X400; assay: broth micro-dilution MIC; format: cell-based
Method: as §1

[10] = system: Staphylococcus aureus SA1199; assay: broth micro-dilution MIC; format: cell-based
Method: as §1

[11] = system: Staphylococcus aureus 489; assay: broth micro-dilution MIC; format: cell-based
Method: as §1

[12] = system: Staphylococcus aureus SA1199B; format: cell-based
Method: as §1

[13] = system: Staphylococcus aureus S13E; format: cell-based
Method: as §1

[14] = system: Staphylococcus haemolyticus 415; assay: broth micro-dilution MIC; format: cell-based
Method: (§2) The formula I compounds have in vitro and in vivo activity against Gram-positive pathogenic bacteria. The MIC's were determined using a standard broth micro-dilution assay.

[15] = system: Staphylococcus epidermidis 270; assay: broth micro-dilution MIC; format: cell-based
Method: as §2

[16] = system: Enterococcus gallinarum 245; assay: broth micro-dilution MIC; format: cell-based; conditions: Enterococcus gallinarum 245
Method: as §2

Entercoccus faecium 2041 = assay: broth micro-dilution MIC; format: cell-based; conditions: Entercoccus faecium 2041
Method: as §2

Entercoccus faecium 180 = assay: broth micro-dilution MIC; format: cell-based; conditions: Entercoccus faecium 180
Method: as §2

[17] = system: Staphylococcus haemolyticus 105; assay: broth micro-dilution MIC; format: cell-based
Method: as §2

[18] = system: Streptococcus pneumoniae P1; assay: broth micro-dilution MIC; format: cell-based
Method: as §2

[19] = system: Staphylococcus aureus SA1199A; assay: broth micro-dilution MIC; format: cell-based
Method: as §1

SMILES | mean geometric MIC, Vancomycin Resistant Strains [1] [µg/mL] | mean geometric MIC, Vancomycin Sensitive Strains [2] [µg/mL] | MIC [3] [µg/mL] | MIC (Entercoccus faecium 276) [µg/mL] | MIC [4] [µg/mL] | MIC [6] [µg/mL] | MIC [7] [µg/mL] | MIC [8] [µg/mL] | MIC [9] [µg/mL] | MIC [10] [µg/mL] | MIC [11] [µg/mL] | MIC [12] [µg/mL] | MIC [13] [µg/mL] | MIC [14] [µg/mL] | MIC [15] [µg/mL] | MIC [16] [µg/mL] | MIC (Entercoccus faecium 2041) [µg/mL] | MIC (Entercoccus faecium 180) [µg/mL] | MIC [17] [µg/mL] | MIC [18] [µg/mL] | other results
CNC(CC(C)C)C(=O)NC1C(=O)NC(CC(N)=O)C(=O)NC2C(=O)NC3C(=O)NC(C(=O)NC(C(=O)O)c4cc(O)cc(O)c4-c4cc3ccc4O)C(OC3CC(C)(N)C(O)C(C)O3)c3ccc(c(Cl)c3)Oc3cc2cc(c3OC2OC(CO)C(O)C(O)C2OC2CC(C)(NCc3ccc(OC)c4ccccc34)C(O)C(C)O2)Oc2ccc(cc2Cl)C1O (stereo not shown) [Compound 15] | 6.7 | 0.14 | 1 (≈ 0.567 µM) | ≤ 0.06 | 2 (≈ 1.13 µM) | 0.25 (≈ 0.142 µM) | 0.25 (≈ 0.142 µM) | ≤ 0.06 | 0.25 (≈ 0.142 µM) | 0.25 (≈ 0.142 µM) | ≤ 0.06 | 0.25 (≈ 0.142 µM) | 0.5 (≈ 0.284 µM) | 2 (≈ 1.13 µM) | 1 (≈ 0.567 µM) | ≤ 0.06 | ≤ 0.06 | 0.5 (≈ 0.284 µM) | 0.5 (≈ 0.284 µM) | ≤ 0.06 | MIC [5]: ≤ 0.06 µg/mL
CNC(CC(C)C)C(=O)NC1C(=O)NC(CC(N)=O)C(=O)NC2C(=O)NC3C(=O)NC(C(=O)NC(C(=O)O)c4cc(O)cc(O)c4-c4cc3ccc4O)C(OC3CC(C)(N)C(O)C(C)O3)c3ccc(c(Cl)c3)Oc3cc2cc(c3OC2OC(CO)C(O)C(O)C2OC2CC(C)(NCc3ccc(-c4ccc([N+](=O)[O-])cc4)c([N+](=O)[O-])c3)C(O)C(C)O2)Oc2ccc(cc2Cl)C1O (stereo not shown) [Compound 212] | 0.50 | 0.036 | ≤ 0.06 | ≤ 0.06 | – | ≤ 0.06 | ≤ 0.06 | ≤ 0.06 | ≤ 0.06 | ≤ 0.06 | ≤ 0.06 | ≤ 0.06 | ≤ 0.06 | 1 (≈ 0.541 µM) | ≤ 0.06 | 1 (≈ 0.541 µM) | ≤ 0.06 | ≤ 0.06 | 1 (≈ 0.541 µM) | ≤ 0.06 | MIC [19]: ≤ 0.06 µg/mL
CNC(CC(C)C)C(=O)NC1C(=O)NC(CC(N)=O)C(=O)NC2C(=O)NC3C(=O)NC(C(=O)NC(C(=O)O)c4cc(O)cc(O)c4-c4cc3ccc4O)C(OC3CC(C)(N)C(O)C(C)O3)c3ccc(c(Cl)c3)Oc3cc2cc(c3OC2OC(CO)C(O)C(O)C2OC2CC(C)(NCc3cccc(Oc4ccc(C(F)(F)F)cc4)c3)C(O)C(C)O2)Oc2ccc(cc2Cl)C1O (stereo not shown) [Compound 132] | 1.2 | 0.048 | 1 (≈ 0.543 µM) | 1 (≈ 0.543 µM) | 2 (≈ 1.09 µM) | 2 (≈ 1.09 µM) | 0.5 (≈ 0.271 µM) | ≤ 0.06 | 1 (≈ 0.543 µM) | 1 (≈ 0.543 µM) | 1 (≈ 0.543 µM) | 2 (≈ 1.09 µM) | 2 (≈ 1.09 µM) | 2 (≈ 1.09 µM) | 2 (≈ 1.09 µM) | 2 (≈ 1.09 µM) | 1 (≈ 0.543 µM) | – | 1 (≈ 0.543 µM) | ≤ 0.06 | MIC [5]: ≤ 0.06 µg/mL
CNC(CC(C)C)C(=O)NC1C(=O)NC(CC(N)=O)C(=O)NC2C(=O)NC3C(=O)NC(C(=O)NC(C(=O)O)c4cc(O)cc(O)c4-c4cc3ccc4O)C(OC3CC(C)(N)C(O)C(C)O3)c3ccc(c(Cl)c3)Oc3cc2cc(c3OC2OC(CO)C(O)C(O)C2OC2CC(C)(NCc3ccc(-c4ccc(C)cc4)c(C)c3)C(O)C(C)O2)Oc2ccc(cc2Cl)C1O (stereo not shown) [Compound 225] | 0.63 | 0.072 | 1 (≈ 0.56 µM) | – | 1 (≈ 0.56 µM) | 0.5 (≈ 0.28 µM) | 1 (≈ 0.56 µM) | ≤ 0.06 | 1 (≈ 0.56 µM) | 1 (≈ 0.56 µM) | 2 (≈ 1.12 µM) | 2 (≈ 1.12 µM) | 1 (≈ 0.56 µM) | 4 (≈ 2.24 µM) | 1 (≈ 0.56 µM) | 4 (≈ 2.24 µM) | 0.125 (≈ 0.07 µM) | ≤ 0.06 | 0.5 (≈ 0.28 µM) | ≤ 0.06 | MIC [5]: ≤ 0.06 µg/mL
CCCCCCCCC#CCCCCCCNC1(C)CC(OC2C(Oc3c4cc5cc3Oc3ccc(cc3Cl)C(OC3CC(C)(N)C(O)C(C)O3)C3NC(=O)C(NC(=O)C5NC(=O)C(CC(N)=O)NC(=O)C(NC(=O)C(CC(C)C)NC)C(O)c5ccc(c(Cl)c5)O4)c4ccc(O)c(c4)-c4c(O)cc(O)cc4C(C(=O)O)NC3=O)OC(CO)C(O)C2O)OC(C)C1O (stereo not shown) [Compound 207] | 1.2 | 0.50 | 8 (≈ 4.41 µM) | 0.25 (≈ 0.138 µM) | 8 (≈ 4.41 µM) | 8 (≈ 4.41 µM) | 1 (≈ 0.552 µM) | ≤ 0.06 | 8 (≈ 4.41 µM) | 8 (≈ 4.41 µM) | 4 (≈ 2.21 µM) | 16 (≈ 8.83 µM) | 8 (≈ 4.41 µM) | 1 (≈ 0.552 µM) | 8 (≈ 4.41 µM) | 1 (≈ 0.552 µM) | 0.125 (≈ 0.069 µM) | 1 (≈ 0.552 µM) | 8 (≈ 4.41 µM) | ≤ 0.06 | MIC [19]: 4 µg/mL (≈ 2.21 µM)
CNC(CC(C)C)C(=O)NC1C(=O)NC(CC(N)=O)C(=O)NC2C(=O)NC3C(=O)NC(C(=O)NC(C(=O)O)c4cc(O)cc(O)c4-c4cc3ccc4O)C(OC3CC(C)(N)C(O)C(C)O3)c3ccc(c(Cl)c3)Oc3cc2cc(c3OC2OC(CO)C(O)C(O)C2OC2CC(C)(NCc3ccc(OCCOC(C)(C)C)cc3)C(O)C(C)O2)Oc2ccc(cc2Cl)C1O (stereo not shown) [Compound 154] | 2.8 | 0.072 | 2 (≈ 1.11 µM) | 0.5 (≈ 0.278 µM) | 2 (≈ 1.11 µM) | 0.5 (≈ 0.278 µM) | 0.5 (≈ 0.278 µM) | ≤ 0.06 | 2 (≈ 1.11 µM) | 2 (≈ 1.11 µM) | 1 (≈ 0.556 µM) | 0.25 (≈ 0.139 µM) | 0.25 (≈ 0.139 µM) | 4 (≈ 2.22 µM) | 0.5 (≈ 0.278 µM) | 4 (≈ 2.22 µM) | – | 1 (≈ 0.556 µM) | 4 (≈ 2.22 µM) | ≤ 0.06 | MIC [5]: ≤ 0.06 µg/mL
CNC(CC(C)C)C(=O)NC1C(=O)NC(CC(N)=O)C(=O)NC2C(=O)NC3C(=O)NC(C(=O)NC(C(=O)O)c4cc(O)cc(O)c4-c4cc3ccc4O)C(OC3CC(C)(N)C(O)C(C)O3)c3ccc(c(Cl)c3)Oc3cc2cc(c3OC2OC(CO)C(O)C(O)C2OC2CC(C)(NCCCCCCCCCCCCc3ccccc3)C(O)C(C)O2)Oc2ccc(cc2Cl)C1O (stereo not shown) [Compound 234] | 2 | 2 | 4 (≈ 2.18 µM) | 4 (≈ 2.18 µM) | 8 (≈ 4.36 µM) | 4 (≈ 2.18 µM) | 8 (≈ 4.36 µM) | 1 (≈ 0.544 µM) | 8 (≈ 4.36 µM) | 8 (≈ 4.36 µM) | 4 (≈ 2.18 µM) | 8 (≈ 4.36 µM) | 8 (≈ 4.36 µM) | 16 (≈ 8.71 µM) | 4 (≈ 2.18 µM) | 16 (≈ 8.71 µM) | 0.5 (≈ 0.272 µM) | 1 (≈ 0.544 µM) | 8 (≈ 4.36 µM) | – | MIC [19]: 2 µg/mL (≈ 1.09 µM)
CNC(CC(C)C)C(=O)NC1C(=O)NC(CC(N)=O)C(=O)NC2C(=O)NC3C(=O)NC(C(=O)NC(C(=O)O)c4cc(O)cc(O)c4-c4cc3ccc4O)C(OC3CC(C)(N)C(O)C(C)O3)c3ccc(c(Cl)c3)Oc3cc2cc(c3OC2OC(CO)C(O)C(O)C2OC2CC(C)(NCc3ccc(-c4ccccc4)cc3F)C(O)C(C)O2)Oc2ccc(cc2Cl)C1O (stereo not shown) [Compound 206] | 1.7 | 0.095 | 0.5 (≈ 0.281 µM) | ≤ 0.06 | 0.5 (≈ 0.281 µM) | 0.5 (≈ 0.281 µM) | ≤ 0.06 | ≤ 0.06 | 0.5 (≈ 0.281 µM) | 0.5 (≈ 0.281 µM) | 1 (≈ 0.563 µM) | 1 (≈ 0.563 µM) | 1 (≈ 0.563 µM) | 1 (≈ 0.563 µM) | 0.25 (≈ 0.141 µM) | 1 (≈ 0.563 µM) | 0.25 (≈ 0.141 µM) | ≤ 0.06 | 0.5 (≈ 0.281 µM) | ≤ 0.06 | MIC [19]: ≤ 0.06 µg/mL
